Test results reported in PMC8140105 (Scientific Reports, 2021).

Key:
BV-2 microglia cells = experiment: IL-6 and TNFα determination (ELISA); format: cell-based, murine; conditions: BV-2 cells, increasing concentrations, 20 h, ELISA of cell-free supernatant, n = 6
Procedure: BV-2 cells were a kind gift from Prof. Alba Minelli and were grown in RPMI medium supplemented with 10% fetal bovine serum (FBS) and 1% penicillin-streptromycin solution (Life Technologies, Belgium). The cells were cultured in culture flasks (Greiner, Belgium) in an incubator set at 37 °C and 5% CO2. When confluent, cells were detached using a cell scraper and diluted 1:20 approximately every 4 days. Experiments were performed in serum-free DMEM without phenol red.
To investigate the microglia activating properties of the peptide, IL-6 and TNFα levels were determined in cell-free supernatants of BV-2 microglia cells after treatment. BV-2 cells (2 × 10^5 cells/well) were seeded in 24-well plates and treated with peptide for 20 h. ELISA was performed according to the supplier’s protocol (eBioscience, Vienna, Austria). Briefly, after incubation with biotinylated detection antibody, avidin-HRP conjugate and subsequently chromogenic tetramethylbenzidine (TMB) substrate were added. Absorbance was measured at 450 nm and 570 nm using the Multiskan Ascent 354 microplate reader (Thermofisher, Waltham, USA). Concentrations were determined using the standard curve generated using known concentrations of TNFα and IL-6.

BV-2 cells = experiment: Immunoblotting (NF-kB p65, IκBα, NIK); format: cell-based, murine
Procedure: To assess nuclear translocation of NF-kB, cells were lysed after 20 h using the NE-PER protocol (Thermo Scientific). Using this kit, the cytoplasmic and nuclear protein fractions are separated from each other. To asses IκBα expression, cells were lysed with RIPA buffer. Protein content of the lysates was determined using the modified Lowry assay (Thermo Scientific). Proteins (20 µg) were separated using an Any kD gel (SDS-PAGE) and transferred to a nitrocellulose membrane (BioRad, Temse, Belgium). Aspecific binding sites were blocked for 30 min using TBS + 1% casein (BioRad, Temse, Belgium). Western blot was performed using the following primary polyclonal antibodies overnight (4 °C): anti-p65 NFkB (1/500), anti-IκBα (1/1000) and anti-β-actin (1/1000), β-tubulin (1/4000) and anti-Histon H3.3 (1/5000) were used as loading controls. Goat anti-rabbit-AP antibody was used for detection (1/10,000) (60 min). All antibodies were purchased at Thermo Scientific (Merelbeke, Belgium). Finally, the BCIP/NBT substrate was added and the results were analyzed using the GelDoc EZ imager and Image Lab software (BioRad, Temse, Belgium). TBS buffer was used for washing between the steps.

Capillary depletion = format: in vivo, ICR-CD-1 mice; conditions: 125I-labelled, i.v., mice, 10 min after injection, n = 2
Procedure: Briefly, 0.1 µmol of the lyophilized peptide was dissolved in 100 µL of phosphate buffer (pH 7.4, 25 mM). A Iodo-Gen coated tube (Thermo Scientific, Merelbeke, Belgium) was first of all rinsed with 1 mL of phosphate buffer. Subsequently, 50 µL of sodium iodide solution (1.1 µmol/mL) and 1 mCi of Na^125I solution (Perking Elmer, Zaventem, Belgium) were transferred into this Iodo-Gen coated tube. The oxidation reaction was allowed to proceed for six minutes at room temperature, after which the iodonium solution was transferred to 50 µL of peptide solution (1 mM). The iodination reaction of the peptide was allowed to proceed for another six minutes at room temperature. Finally, the iodinated peptide was purified using a silver filter (Thermo Scientific, Merelbeke, Belgium).
We performed capillary depletion to determine whether the peptides, taken up by the brain, completely crossed the capillary wall into the tissue rather than just being trapped by and in the endothelium. […] Subsequently, the brain was collected, weighed and the radioactivity measured in the gamma counter for 5 min. […] The resulting solution was weighed and centrifuged in a swinging bucket rotor at 5400g for 30 min at 4 °C, after measuring the radioactivity in the gamma counter. Pellet (capillaries) and supernatant (parenchyma and fat tissues) were also collected, weighed and measured in a gamma counter. […]

Substance: SDLPFEH [PapRIV, heptapeptide (SDLPFEH) quorum sensing peptide originating from the Bacillus cereus group; synthetic, purchased from GL Biochem]
- IL-6 production (BV-2 microglia cells): induced
- TNFα production (BV-2 microglia cells): induced
- NF-kB nuclear translocation (BV-2 cells; 20 h, n = 3): increased
- NIK expression (BV-2 cells; data not shown): not observed
- IκBα levels (BV-2 cells; n = 3): decreasing
- Capillary fraction (Capillary depletion): 13.08%
- Parenchymal fraction (Capillary depletion): 86.92%
